Where “and” joins values, the source holds several entries; their conditions need not be identical. Equal values may be shown once. Read-outs that look alike come from different tables or passages of the source.
Columns and labels:
Type in all cases: cell-based, human
[1] = tested on: NOXA mRNA in IMR90 cells at passage 27; assay: NOXA mRNA expression by RT-qPCR, replicative senescence; conditions: 10 nM; for NOXA mRNA expression: Replicative Senescence cells, relative to Control DMSO = 1, individual replicate values
Experimental: (§1) Total RNA was isolated using RNAeasy kit (Quiagen). cDNA was generated with reverse transcriptase iScript (Bio-Rad). RT-qPCR was performed using SYBR Select Master Mix (Applied Biosystems) in OneStepPlus detection system (Applied Biosystems). Oligos for amplification were: NOXA Fw-[…] and Rv-[…]; b-ACTIN Fw-[…] and Rv-[…]; IL1a Fw-[…] and Rv- […]; IL1b Fw-[…] and Rv- […]; IL8 Fw-[…] and Rv-[…]; p16 Fw-CGGTCGGAGGCCGATCCAG and Rv- […]; p21Fw-[…] and Rv- […].

[2] = tested on: senescent IMR90 ER:RAS cells; assay: Cell survival assay using crystal violet staining, OIS, senescent cells; parameters: % Cell Survival: concentration or dose not given beside the values; conditions: for % Cell Survival / Mean (cell survival, Tukey test details): FIG 4B, ER:RAS cells; for % Cell Survival: individual replicate values, ER:STOP DMSO = 100; for Mean (cell survival, Tukey test details): mean of n=12 as fraction of STOP DMSO = 1
Experimental: Equal numbers of control and senescent cells were plated at high density on multiwell plates just before senolytic treatment addition. After treatment, cells were fixed on 0.5% glutaraldehyde (Sigma) and then dried at RT overnight. Then, wells were stained with crystal violet solution for 3 h, washed and dried. Once they were completely dry, the plates were scanned for records. Quantification was performed extracting the staining with 1% acetic acid and measuring the final solution by absorbance at 595 nm.

[3] = tested on: NOXA mRNA in senescent IMR90 ER:RAS cells; assay: NOXA mRNA expression by RT-qPCR, OIS; conditions: ER:RAS cells, 10 nM; relative to ER:STOP DMSO = 1; individual replicate values
Experimental: as §1

[4] = tested on: non-senescent control IMR90 ER:RAS cells; assay: Nuclei count (Hoechst, high content imaging) senolytic assay, OIS model, non-senescent control cells; conditions: for IC50: OIS model, non-senescent IMR90 ER:RAS, nuclei count, 72 h; for % Cell Survival: control
Method in brief: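 Cells seeded, left 24 h, then dosed across a 10-point […] series (10 μM down to 10 nM) with DMSO control. After 72 h, wells were fixed, permeabilised and stained with Hoechst. Nuclei were counted by high-content imaging in senescent and non-senescent IMR90 ER:RAS cultures.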

[5] = Homo sapiens, IMR-90, 72 h, Control, log (dose) [M] -5, 72 h, mean n=3 (Fig 3C), read-out: Mean % Cell Survival
[6] = Homo sapiens, IMR-90, 72 h, Control, log (dose) [M] -5.33, 72 h, mean n=3 (Fig 3C), read-out: Mean % Cell Survival
[7] = Homo sapiens, IMR-90, 72 h, Control, log (dose) [M] -5.66, 72 h, mean n=3 (Fig 3C), read-out: Mean % Cell Survival
[8] = Homo sapiens, IMR-90, 72 h, Control, log (dose) [M] -6, 72 h, mean n=3 (Fig 3C), read-out: Mean % Cell Survival
[9] = Homo sapiens, IMR-90, 72 h, Control, log (dose) [M] -6.33, 72 h, mean n=3 (Fig 3C), read-out: Mean % Cell Survival
[10] = Homo sapiens, IMR-90, 72 h, Control, log (dose) [M] -6.66, 72 h, mean n=3 (Fig 3C), read-out: Mean % Cell Survival
[11] = Homo sapiens, IMR-90, 72 h, Control, log (dose) [M] -7, 72 h, mean n=3 (Fig 3C), read-out: Mean % Cell Survival
[12] = Homo sapiens, IMR-90, 72 h, Control, log (dose) [M] -7.33, 72 h, mean n=3 (Fig 3C), read-out: Mean % Cell Survival
[13] = Homo sapiens, IMR-90, 72 h, Control, log (dose) [M] -7.66, 72 h, mean n=3 (Fig 3C), read-out: Mean % Cell Survival
[14] = Homo sapiens, IMR-90, 72 h, Control, log (dose) [M] -8, 72 h, mean n=3 (Fig 3C), read-out: Mean % Cell Survival

Structure (SMILES): CO[C@H]1C[C@H](O[C@H]2CC[C@]3(C)[C@H]4CC[C@]5(C)[C@@H](C6=CC(=O)OC6)CC[C@]5(O)[C@@H]4CC[C@]3(O)C2)O[C@H](C)[C@H]1O[C@@H]1O[C@H](CO)[C@@H](O)[C@H](O)[C@H]1O [Periplocin, periplocin]
- NOXA mRNA expression [1]: 5.65 and 6.34 and 7.72
- % Cell Survival [2]: 119.4% and 103.3% and 90.2% and 103.2% and 120.1% and 97.6% and 95% and 114.9% and 93.3% and 103% and 92.4%
- Mean (cell survival, Tukey test details) [2]: 1.03
- cytotoxic activity / cellular content (crystal violet), in words ([2]; IMR90-ER:RAS cells undergoing OIS, 10 nM, 72 h): no cytotoxic activity
- NOXA mRNA expression [3]: 6.84 and 6.41 and 10.09 and 3.28
- Mean % Cell Survival ([4]; Control, log (dose) [M] -5, 72 h, mean n=3 (Fig 3C)): 18.4295%
- Mean % Cell Survival ([4]; Control, log (dose) [M] -5.33, 72 h, mean n=3 (Fig 3C)): 19.4604%
- Mean % Cell Survival ([4]; Control, log (dose) [M] -5.66, 72 h, mean n=3 (Fig 3C)): 23.5452%
- Mean % Cell Survival ([4]; Control, log (dose) [M] -6, 72 h, mean n=3 (Fig 3C)): 29.0681%
- Mean % Cell Survival ([4]; Control, log (dose) [M] -6.33, 72 h, mean n=3 (Fig 3C)): 43.2104%
- Mean % Cell Survival ([4]; Control, log (dose) [M] -6.66, 72 h, mean n=3 (Fig 3C)): 52.7161%
- Mean % Cell Survival ([4]; Control, log (dose) [M] -7, 72 h, mean n=3 (Fig 3C)): 63.4586%
- Mean % Cell Survival ([4]; Control, log (dose) [M] -7.33, 72 h, mean n=3 (Fig 3C)): 71.1117%
- Mean % Cell Survival ([4]; Control, log (dose) [M] -7.66, 72 h, mean n=3 (Fig 3C)): 89.3621%
- Mean % Cell Survival ([4]; Control, log (dose) [M] -8, 72 h, mean n=3 (Fig 3C)): 91.9585%
- IC50 [4]: 300 nM
- % Cell Survival ([4]; log (dose) [M] -5, individual replicates (Fig 3D)): 15.9071% and 11.1013% and 28.2801%
- % Cell Survival ([4]; log (dose) [M] -5.33, individual replicates (Fig 3D)): 20.9802% and 15.9471% and 21.4539%
- % Cell Survival ([4]; log (dose) [M] -5.66, individual replicates (Fig 3D)): 25.1075% and 20.6167% and 24.9113%
- % Cell Survival ([4]; log (dose) [M] -6, individual replicates (Fig 3D)): 32.8461% and 26.2555% and 28.1028%
- % Cell Survival ([4]; log (dose) [M] -6.33, individual replicates (Fig 3D)): 39.8108% and 40.3524% and 49.4681%
- % Cell Survival ([4]; log (dose) [M] -6.66, individual replicates (Fig 3D)): 51.9347% and 55.859% and 50.3546%
- % Cell Survival ([4]; log (dose) [M] -7, individual replicates (Fig 3D)): 57.6956% and 62.3789% and 70.3014%
- % Cell Survival ([4]; log (dose) [M] -7.33, individual replicates (Fig 3D)): 64.4884% and 71.5419% and 77.305%
- % Cell Survival ([4]; log (dose) [M] -7.66, individual replicates (Fig 3D)): 94.8409% and 82.7313% and 90.5142%
- % Cell Survival ([4]; log (dose) [M] -8, individual replicates (Fig 3D)): 93.6371% and 90.7489% and 91.4894%

Structure (SMILES): C[C@@H]1O[C@@H](O[C@H]2C[C@@H](O)[C@]3(CO)[C@H]4[C@H](O)C[C@]5(C)[C@@H](C6=CC(=O)OC6)CC[C@]5(O)[C@@H]4CC[C@]3(O)C2)[C@H](O)[C@H](O)[C@H]1O [Ouabain, ouabain, reference compound]
- NOXA mRNA expression, group mean (Test details, Mean 2) ([1]; Replicative Senescence (RS) cells, mean of n=3): 15.44
- NOXA mRNA expression [1]: 23.42 and 22.01 and 0.88
- cytotoxic activity / cellular content (crystal violet), in words [2]: no cytotoxic activity
- % Cell Survival [2]: 99% and 102.3% and 88.5% and 93% and 111.6% and 79.7% and 87.5% and 77.4% and 104.8% and 84.4% and 78.3% and 72%
- Mean (cell survival, Tukey test details) [2]: 0.8988
- NOXA mRNA expression [3]: 4.99 and 3.07 and 6.94 and 6.96
- viability at 10 µM [4, 5]: 15.9%
- viability at 4.677 µM [4, 6]: 22.3%
- viability at 2.188 µM [4, 7]: 23.9%
- viability at 1 µM [4, 8]: 27%
- viability at 0.4677 µM [4, 9]: 29.6%
- viability at 0.2188 µM [4, 10]: 46.7%
- viability at 0.1 µM [4, 11]: 60.8%
- viability at 0.04677 µM [4, 12]: 78.1%
- viability at 0.02188 µM [4, 13]: 87.3%
- viability at 0.01 µM [4, 14]: 88.3%
- viability at 0.0464 µM ([4]; Homo sapiens, IMR-90, Control, 46.4 nM, normalised to DMSO, individual experiments (Fig 3B), read-out: % Cell Survival): 78.1%
- viability at 10 µM ([4]; Homo sapiens, IMR-90, control cells, log (dose) [M] -5, read-out: % Cell Survival): 10.9%
- viability at 4.677 µM ([4]; Homo sapiens, IMR-90, control cells, log (dose) [M] -5.33, read-out: % Cell Survival): 23.1%
- viability at 2.188 µM ([4]; Homo sapiens, IMR-90, control cells, log (dose) [M] -5.66, read-out: % Cell Survival): 27%
- viability at 1 µM ([4]; Homo sapiens, IMR-90, control cells, log (dose) [M] -6, read-out: % Cell Survival): 27.3%
- viability at 0.4677 µM ([4]; Homo sapiens, IMR-90, control cells, log (dose) [M] -6.33, read-out: % Cell Survival): 29.4%
- viability at 0.2188 µM ([4]; Homo sapiens, IMR-90, control cells, log (dose) [M] -6.66, read-out: % Cell Survival): 46%
- viability at 0.1 µM ([4]; Homo sapiens, IMR-90, control cells, log (dose) [M] -7, read-out: % Cell Survival): 62.2%
- viability at 0.04677 µM ([4]; Homo sapiens, IMR-90, control cells, log (dose) [M] -7.33, read-out: % Cell Survival): 81.7%
- viability at 0.02188 µM ([4]; Homo sapiens, IMR-90, control cells, log (dose) [M] -7.66, read-out: % Cell Survival): 81.6%
- viability at 0.01 µM ([4]; Homo sapiens, IMR-90, control cells, log (dose) [M] -8, read-out: % Cell Survival): 86%
- IC50 ([4]; Homo sapiens, IMR-90): 231 nM

Structure (SMILES): COc1cc(O)c2c(=O)cc(-c3ccc(OC)c(-c4c(O)cc(O)c5c(=O)cc(-c6ccc(O)cc6)oc45)c3)oc2c1 [Ginkgetin, ginkgetin]
- viability at 10 µM [4, 5]: 37.6%
- viability at 4.677 µM [4, 6]: 87%
- viability at 2.188 µM [4, 7]: 87.7%
- viability at 1 µM [4, 8]: 87.1%
- viability at 0.4677 µM [4, 9]: 85.5%
- viability at 0.2188 µM [4, 10]: 86.2%
- viability at 0.1 µM [4, 11]: 85.1%
- viability at 0.04677 µM [4, 12]: 87.3%
- viability at 0.02188 µM [4, 13]: 88.8%
- viability at 0.01 µM [4, 14]: 93%
- viability at 4.677 µM ([4]; Homo sapiens, IMR-90, control, log (dose) [M] -5.33, individual replicates (Fig 3D), read-out: % Cell Survival): 83%
- viability at 2.188 µM ([4]; Homo sapiens, IMR-90, control, log (dose) [M] -5.66, individual replicates (Fig 3D), read-out: % Cell Survival): 83.6%
- viability at 1 µM ([4]; Homo sapiens, IMR-90, control, log (dose) [M] -6, individual replicates (Fig 3D), read-out: % Cell Survival): 78.9%
- viability at 0.4677 µM ([4]; Homo sapiens, IMR-90, control, log (dose) [M] -6.33, individual replicates (Fig 3D), read-out: % Cell Survival): 82.5%
- viability at 0.2188 µM ([4]; Homo sapiens, IMR-90, control, log (dose) [M] -6.66, individual replicates (Fig 3D), read-out: % Cell Survival): 81.2%
- viability at 0.1 µM ([4]; Homo sapiens, IMR-90, control, log (dose) [M] -7, individual replicates (Fig 3D), read-out: % Cell Survival): 74.3%
- viability at 0.01 µM ([4]; Homo sapiens, IMR-90, control, log (dose) [M] -8, individual replicates (Fig 3D), read-out: % Cell Survival): 85.3%
- IC50 ([4]; Homo sapiens, IMR-90): 26000 nM

Source: paper PMC10257182, “Discovery of senolytics using machine learning” (Nature Communications, 2023)
